# Laboratory results reported in ChEMBL document CHEMBL3124883, “Halting HCV Replication with NS5A Inhibitors and NS5B Polymerase Inhibitors: Effective New Treatments of HCV Infection” (ACS Med Chem Lett, 2014).
# Active and inactive are the calls of the source. The calls are words filed in the database; no cut-off is given here.
# Tests used:
# [1] = system: Hepatitis C virus; experiment: Antiviral activity against HCV genotype 1b infected in human HuH7 cells assessed as total cellular RNA after 5 days by RT-PCR analysis; format: functional, organism-based, Hepacivirus hominis; conditions: Huh-7, 120 h
# [2] = system: Hepatitis C virus; experiment: Antiviral activity against HCV infected in human HuH7 cells assessed as inhibition of RNA replication after 72 hrs by luciferase reporter gene assay; format: functional, organism-based; conditions: Hepacivirus hominis; Huh-7
SMILES,EC50 [1] [nM],inhibition [2]
COC(=O)N[C@H](C(=O)N1C[C@@H](SC)C[C@H]1c1ncc(-c2ccc(-c3ccc(-c4cnc([C@@H]5C[C@H](SC)CN5C(=O)[C@@H](NC(=O)OC)c5ccccc5)[nH]4)cc3)cc2)[nH]1)c1ccccc1,< 1,
Cc1c(-c2ccccn2)n(C2CCCC2)c2ccc(C(=O)NC3(c4nc5cc(/C=C/C(=O)O)ccc5n4C)CCC3)cc12,,Active
C/C(=C\c1ccc2nc(C3(NC(=O)c4ccc5c(C6CCCC6)c(-c6cccc7cc(C)[nH]c67)n(C)c5c4)CCC3)n(C)c2c1)C(=O)O,,Active
C#Cc1ccc(-c2cn(-c3ccc(-c4cnc(-c5cnc([C@@H]6CCCN6C(=O)[C@@H](NC(=O)OC)C(C)C)[nH]5)[nH]4)cc3)nn2)cc1,1,
COC(=O)N[C@@H](CC(C)C)C(=O)N1CCC[C@H]1c1ncc(-c2ccc(-c3ccccc3)cc2)[nH]1,100,
Cn1c(C2(NC(=O)c3ccc4c(C5CCCC5)c(-c5ccccn5)n(C)c4c3)CCC2)nc2cc(/C=C/C(=O)O)ccc21,,Active
Cn1c(-c2cnccn2)c(C2CCCC2)c2ccc(C(=O)NC3(c4nc5ccc(/C=C/C(=O)O)cc5n4C4CCC4)CCCC3)cc21,,Active
